Laboratory results taken from ChEMBL document CHEMBL1151350, “Uterotonic effect of Evodia rutaecarpa alkaloids” (1980).
Calls of active or inactive are those of the source. The calls are words filed in the database; no cut-off is given here.

Legend:
Rattus norvegicus [1] = organism: Rattus norvegicus; test: In virto uterotonic activity in Sprague-Dawley rat uterus assessed as contraction at 20 ug/ml; type: functional, tissue-based
[2] = In virto uterotonic activity in Sprague-Dawley rat uterus assessed as contraction; type: functional
Rattus norvegicus [3] = organism: Rattus norvegicus; test: In virto uterotonic activity in Sprague-Dawley rat uterus assessed as contraction in presence of atropine; type: functional, tissue-based
Rattus norvegicus [4] = test: In vivo uterotonic activity in iv dosed estrous Sprague-Dawley rat uterus assessed as contraction by sponge tipped catheter method; type: functional
Rattus norvegicus [5] = test: In vivo uterotonic activity in estrous Sprague-Dawley rat uterus assessed as maximum peak contraction at 2400 ug/kg, iv within 20 mins by sponge tipped catheter method; type: functional
Rattus norvegicus [6] = organism: Rattus norvegicus; test: In virto uterotonic activity in Sprague-Dawley rat uterus assessed as contraction in presence of methysergide; type: functional, tissue-based
[7] = In virto uterotonic activity in Sprague-Dawley rat uterus expressed as g-force unit; type: functional

Structure (SMILES)	Activity (Rattus norvegicus [1])	Activity [2]	Activity (Rattus norvegicus [3])	Activity (Rattus norvegicus [4])	Activity (Rattus norvegicus [4]; record 2)	Activity (Rattus norvegicus [5])	Activity (Rattus norvegicus [6])	Activity [7]
CN1c2ccccc2C(=O)N2CCc3c([nH]c4ccccc34)[C@@H]21	inactive							
C[n+]1c2n(c(=O)c3ccccc31)CCc1c-2[nH]c2ccccc12.[Cl-] [DEHYDROEVODIAMINE CHLORIDE]		0.6 µg/mL	Active	Dose-dependent effect	80 µg/kg	25.3 mmHg	Active	2.15 g
Cl.O=c1c2ccccc2nc2n1CCc1c-2[nH]c2ccccc12 [RUTAECARPINE HYDROCHLORIDE]		<1 µg/mL						0.72 g
